Source: US7323485B2, “4-(substituted cycloalkylmethyl) imidazole-2-thiones, 4-(substituted cycloalkenylmethyl) imidazole-2-thiones, 4-(substituted cycloalkylmethyl) imidazol-2-ones and 4-(substituted cycloalkenylmethyl) imidazol-2-ones and related compounds” (Allergan, Inc., priority 2002, dated 2008)

Key:
[1] = molecular target: T1, alpha2B adrenergic receptors (Homo sapiens, UniProt P18089); assay: Receptor Selection and Amplification Technology (RSAT) assay, alpha2B; format: cell-based; details: for EC50: NA = not active at concentrations less than 10 micromolar, read-out: Alpha 2B EC50; for Alpha 2B intrinsic activity: fraction of maximal effect of standard full agonist brimonidine (UK14304)
T1 construct: expressed in transfected cells; host or cells: NIH-3T3
T1 sequence (P18089 1-450): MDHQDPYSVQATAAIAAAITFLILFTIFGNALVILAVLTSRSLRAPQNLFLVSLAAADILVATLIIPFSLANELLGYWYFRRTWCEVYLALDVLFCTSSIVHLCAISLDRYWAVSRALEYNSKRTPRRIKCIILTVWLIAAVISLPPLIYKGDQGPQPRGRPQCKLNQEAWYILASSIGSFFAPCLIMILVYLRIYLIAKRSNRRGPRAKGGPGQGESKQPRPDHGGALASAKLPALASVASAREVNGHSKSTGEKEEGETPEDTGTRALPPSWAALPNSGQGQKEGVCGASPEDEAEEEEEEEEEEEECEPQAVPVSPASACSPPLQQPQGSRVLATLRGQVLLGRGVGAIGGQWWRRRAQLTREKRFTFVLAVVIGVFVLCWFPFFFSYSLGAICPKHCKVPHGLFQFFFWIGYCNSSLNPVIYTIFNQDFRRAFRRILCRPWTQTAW
Text: (§1) The imidazole-2-thione compounds of the invention are agonists of alpha2 adrenergic receptors, particularly they tend to be specific or selective agonists of alpha2B and/or to a lesser extent alpha2C adrenergic receptors, in preference over alpha2A adrenergic receptors. […] Al., 1995, Pharmacol. Toxicol. 76, pp. 308-311 (incorporated herein by reference) and is also described below. Another reference pertinent to this assay is Conklin et al. (1993) Nature 363:274-6, also incorporated herein by reference.
(§2) Receptor Selection and Amplification Technology (RSAT) Assay
(§3) The RSAT assay measures a receptor-mediated loss of contact inhibition that results in selective proliferation of receptor-containing cells in a mixed population of confluent cells. The increase in cell number is assessed with an appropriate transfected marker gene such as β-galactosidase, the activity of which can be easily measured in a 96-well format. Receptors that activate the G protein, Gq, elicit this response. Alpha2 receptors, which normally couple to Gi, activate the RSAT response when coexpressed with a hybrid Gq protein that has a Gi receptor recognition domain, called Gq/i5.
(§4) NIH-3T3 cells are plated at a density of 2×10^6 cells in 15 cm dishes and maintained in Dulbecco's modified Eagle's medium supplemented with 10% calf serum. One day later, cells are cotransfected by calcium phosphate precipitation with mammalian expression plasmids encoding p-SV-β-galactosidase (5-10 μg), receptor (1-2 μg) and G protein (1-2 μg). 40 μg salmon sperm DNA may also be included in the transfection mixture. Fresh media is added on the following day and 1-2 days later, cells are harvested and frozen in 50 assay aliquots. Cells are thawed and 100 μl added to 100 μl aliquots of various concentrations of drugs in triplicate in 96-well dishes. Incubations continue 72-96 hr at 37 EC. After washing with phosphate-buffered saline, β-galactosidase enzyme activity is determined by adding 200 μl of the chromogenic substrate (consisting of 3.5 mM o-nitrophenyl-β-D-galactopyranoside and 0.5% nonidet P-40 in phosphate buffered saline), incubating overnight at 30 EC and measuring optical density at 420 nm. The absorbance is a measure of enzyme activity, which depends on cell number and reflects a receptor-mediated cell proliferation. The EC50 and maximal effect of each drug at each alpha2 receptor is determined. The efficacy or intrinsic activity is calculated as a ratio of the maximal effect of the drug to the maximal effect of a standard full agonist for each receptor subtype. Brimonidine, also called UK14304, the chemical structure of which is shown below, is used as the standard agonist for the alpha2A, alpha2B and alpha2C receptors.
(§5) The results of the RSAT assay with several exemplary compounds of the invention are disclosed in Table 1 above together with the chemical formulas of these examplary compounds. […] NA stands for “not active” at concentrations less than 10 micromolar. As is known EC50 is the concentration at which half of a given compound's maximal activity is observed.

[2] = molecular target: T2, alpha2C adrenergic receptors (Homo sapiens, UniProt P18825); assay: Receptor Selection and Amplification Technology (RSAT) assay, alpha2C; format: cell-based; details: for EC50: NA = not active at concentrations less than 10 micromolar, read-out: Alpha 2C EC50; for Alpha 2C intrinsic activity: fraction of maximal effect of standard full agonist brimonidine (UK14304)
T2 construct: expressed in transfected cells; host or cells: NIH-3T3
T2 sequence (P18825 1-462): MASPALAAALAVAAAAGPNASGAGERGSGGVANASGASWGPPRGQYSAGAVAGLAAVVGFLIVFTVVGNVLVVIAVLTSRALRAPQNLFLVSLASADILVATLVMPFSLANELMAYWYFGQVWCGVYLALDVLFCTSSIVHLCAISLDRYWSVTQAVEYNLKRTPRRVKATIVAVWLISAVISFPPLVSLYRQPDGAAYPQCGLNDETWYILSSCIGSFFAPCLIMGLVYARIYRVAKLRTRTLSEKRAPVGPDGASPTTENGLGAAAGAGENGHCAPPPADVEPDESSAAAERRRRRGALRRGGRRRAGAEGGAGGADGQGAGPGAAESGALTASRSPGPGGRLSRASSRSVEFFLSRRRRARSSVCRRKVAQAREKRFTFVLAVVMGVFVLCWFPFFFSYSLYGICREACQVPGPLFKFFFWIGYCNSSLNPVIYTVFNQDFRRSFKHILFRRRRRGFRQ
Text: as §1, §2, §3, §4, §5

| EC50 [1] [nM] | Alpha 2B intrinsic activity [1] | EC50 [2] [nM] | Alpha 2C intrinsic activity [2] | SMILES |
| --- | --- | --- | --- | --- |
| 7 | 0.96 | 101 | 0.49 | S=c1[nH]cc(C2Cc3cccc(I)c3C2)[nH]1 (centres unmarked) |
| 1590 | 0.68 | > 2000 | 0.46 | COc1ccc2c(c1)CCC2Cc1c[nH]c(=S)[nH]1 (centres unmarked) |
| 27 | 1.12 | 374 | 0.45 | Cc1ccc2c(c1)CC(c1c[nH]c(=S)[nH]1)C2 (centres unmarked) |
| 1620 | 0.88 | 2470 | 0.72 | CC=CC1=CCCC1Cc1c[nH]c(=S)[nH]1 (centres unmarked) |
| 755 | 0.98 | 2260 | 0.88 | O=C1C2=C(CCC1Cc1c[nH]c(=S)[nH]1)NCCC2 (centres unmarked) |
| 225 | 0.44 | 205 | 0.68 | Fc1ccc(C2=CCCC2Cc2c[nH]c(=S)[nH]2)cc1F (centres unmarked) |
| 472 | 0.83 | 790 | 0.58 | Fc1cc(F)cc(C2=CCC[C@H]2Cc2c[nH]c(=S)[nH]2)c1 |
| 115 | 0.89 | 47 | 1.11 | CC1=C(c2cc(F)cc(F)c2)C(Cc2c[nH]c(=S)[nH]2)CC1 (centres unmarked) |
| 2180 | 0.47 | > 3000 | 0.46 | Cc1ccc(C2=CCCC2Cc2c[nH]c(=S)[nH]2)cc1 (centres unmarked) |
| < 2 | 1.15 | 45 | 0.74 | S=c1[nH]cc(C2Cc3cccc(Cl)c3C2)[nH]1 (centres unmarked) |
| 41 | 0.97 | 1110 | 0.52 | Fc1ccc2c(c1)CCC2Cc1c[nH]c(=S)[nH]1 (centres unmarked) |
| 27 | 0.95 | 139 | 0.48 | CC1=C(Br)C(Cc2c[nH]c(=S)[nH]2)CC1 (centres unmarked) |
| 523 | 0.96 | > 2000 | 0.61 | CC1CC(Cc2c[nH]c(=S)[nH]2)C(=O)c2ccccc21 (centres unmarked) |
| 260 | 1.0 | 662 | 0.75 | CC(C)CC1=CCCC1Cc1c[nH]c(=S)[nH]1 (centres unmarked) |
| 578 | 1.1 | > 2000 | 0.57 | CC1Cc2ccccc2C1Cc1c[nH]c(=S)[nH]1 (centres unmarked) |
| 172 | 0.76 | 107 | 0.35 | O=C1c2c(F)cccc2CCC1Cc1c[nH]c(=S)[nH]1 (centres unmarked) |
| 30 | 1.06 | 602 | 0.55 | S=c1[nH]cc(CC2CCC3=C2CCCC3)[nH]1 (centres unmarked) |
| 354 | 0.363 | 662 | 0.38 | Fc1cc2c(cc1F)C(Cc1c[nH]c(=S)[nH]1)CC2 (centres unmarked) |
| 191 | 0.53 | 916 | 0.37 | Fc1cccc(C2=CCC[C@H]2Cc2c[nH]c(=S)[nH]2)c1 |

| EC50 [1] [nM] | Alpha 2B intrinsic activity [1] | EC50 [2] [nM] | Alpha 2C intrinsic activity [2] | SMILES |
| --- | --- | --- | --- | --- |
| 22 | 0.93 | 41 | 0.85 | CC1=C(c2ccc(C#N)cc2)C(Cc2c[nH]c(=S)[nH]2)CC1 (centres unmarked) |
| 24 | 0.85 | 180 | 0.51 | S=c1[nH]cc(CC2CC=CC2)[nH]1 [drawing 24] |
| 24 | 0.93 | 137 | 0.42 | S=c1[nH]cc(CC2CCCc3ccccc32)[nH]1 (centres unmarked) |
| 33 | 1.01 | 1020 | 1.39 | CC1CC(Cc2c[nH]c(=S)[nH]2)c2ccccc21 (centres unmarked) |
| 269 | 0.97 | 131 | 0.72 | Fc1ccc(C2=CCC[C@@H]2Cc2c[nH]c(=S)[nH]2)cc1 |
| 459 | 0.68 | 152 | 0.77 | Fc1ccc(C2=CCCC2Cc2c[nH]c(=S)[nH]2)cc1 (centres unmarked) |
| 5 | 0.87 | 110 | 0.43 | S=c1[nH]cc(CC2CCC3=C2CCC3)[nH]1 (centres unmarked) [drawing 15] |
| 34 | 1.03 | 423 | 0.52 | S=c1[nH]cc(C2CCc3ccccc3C2)[nH]1 (centres unmarked) |
| 234 | 0.53 | 611 | 0.42 | S=c1[nH]cc(CC2CCC=C2c2cccs2)[nH]1 (centres unmarked) |
| 58 | 0.93 | 939 | 0.34 | Cc1cccc2c1CCC2Cc1c[nH]c(=S)[nH]1 (centres unmarked) |
| > 3000 | 0.56 | 568 | 0.47 | COc1ccc(C2=CCCC2Cc2c[nH]c(=S)[nH]2)cc1 (centres unmarked) |
| 161 | 1.0 | 331 | 1.0 | CCC1=CCCCC1Cc1c[nH]c(=S)[nH]1 (centres unmarked) |
| 422 | 1.11 | > 2000 | 0.57 | C=CC1=CCCC1Cc1c[nH]c(=S)[nH]1 (centres unmarked) |
| 7.5 | 0.95 | 64 | 0.56 | S=c1[nH]cc(C[C@H]2CCc3ccccc32)[nH]1 |
| 498 | 0.91 | 155 | 1.01 | N#Cc1ccc(C2=CCCC2Cc2c[nH]c(=S)[nH]2)cc1 (centres unmarked) |
| 14 | 0.91 | 561 | 0.45 | Cc1c(Cl)ccc2c1CC(c1c[nH]c(=S)[nH]1)C2 (centres unmarked) |
| > 10000 | – | 2510 | – | O=[N+]([O-])c1cccc(C2=CCCC2Cc2c[nH]c(=S)[nH]2)c1 (centres unmarked) |
| 162 | 0.95 | 306 | 0.34 | O=C1c2c(CO)cccc2CCC1Cc1c[nH]c(=S)[nH]1 (centres unmarked) |
